Experiments:
[1] = tested on: total tau (TAU5) in A152T neurons; experiment: Western blot of total tau in A152T neurons; assay type: cell-based, human; details: pre-treatment 6 hr then 1 μM QC-01–175 for 18 hr, western blot
Description: (§1) Cells from individuals carrying the tau risk variant A152T (c.1407G > A; NCBI RefSeq NM_001123066, rs143624519), the autosomal dominant mutation P301L (c.C1907T; NCBI NM_001123066, rs63751273), or age-matched non-mutant WT tau were employed in this study (Figure 2—source data 1). Dermal fibroblasts from the tau-P301L carrier and the healthy individual were generated from a skin biopsy from subjects within the MGH Frontotemporal Disorders Unit as part of the MGH Neurodegeneration Repository. Approval for human subjects’ work was obtained under a Partners/MGH-approved IRB Protocol (#2010P001611/MGH). Fibroblasts were reprogrammed into iPSCs, which were subsequently converted into cortical-enriched neural progenitor cells (NPCs) and differentiated into neuronal cells as previously described ([Almeida et al., 2012]; [Seo et al., 2017]; [Silva et al., 2016]; [Sheridan et al., 2011]) (Silva MC, Manuscript in preparation, 2019). Briefly, cells were cultured in 6-well (Fisher Scientific Corning, Pittsburgh, PA) or 96-well (Fisher Scientific Corning) plates coated with poly-ornithine (20 μg/mL in water, Sigma, St. Louis, MO) and laminin (5 μg/mL in PBS, Sigma) (POL-coated), in DMEM/F12-B27 media [70% DMEM (Gibco, Carlsbad, CA), 30% Ham’s-F12 (Fisher Scientific Corning), 2% B27 (Gibco), 1% penicillin-streptomycin (Gibco)]. Media was supplemented with EGF (20 ng/mL, Sigma), FGF (20 ng/mL, Stemgent, Cambridge, MA) and heparin (5 μg/mL, Sigma), to promote NPC proliferation and expansion. The growth factors were withdrawn to promote neural differentiation for 6 to 8 weeks, with half media change two times per week. Cell lines’ identity was authenticated by SANGER sequencing, karyotyping and ACGH analysis at different stages of culture maintenance from iPSC to NPC. All working cell lines tested negative for mycoplasma contamination.
(§2) Compound treatment in six-well plates was performed in 2 mL media volume by removing 1 mL of conditioned media from the culture and adding 1 mL of new media pre-mixed with the compound at the appropriate 2X concentration, followed by incubation at 37°C for the designated period of time. Compound treatment in 96-well plates was performed in 100 μL media volume by adding compound directly to each well, followed by incubation at 37°C. When testing the effect of drug pre-treatment, the first compound was added as described above for the period of time needed, and then QC-01–175 was added directly onto the media without media exchange.
(§3) Neurons differentiated in six-well plates for 6 weeks were washed and collected in PBS, lysed in RIPA buffer (Boston Bio-Products, Boston, MA) supplemented with 2% SDS (Sigma), protease inhibitors cocktail (Roche Complete Mini tablets, Mannheim, Germany), and phosphatase inhibitors cocktail (Sigma), followed by water sonication (Bransonic Ultrasonic Baths, Thomas Scientific, Danbury, CT) and 20,000 g centrifugation for 20 min. Supernatants were transferred to new tubes and total protein concentration was quantified with the Pierce BCA Protein Assay Kit (ThermoFisher Scientific, Carlsbad, CA). Human recombinant tau protein ladder was purchased from Sigma. Electrophoresis were performed with the Novex NuPAGE SDS-PAGE Gel System (Invitrogen, Carlsbad, CA), by running 10 μg of total protein (pre-boiled in SDS-DTT loading buffer, NEB, Ipswich, MA) on pre-cast SDS-PAGE. Gels were transferred onto PVDF membranes (EMD Millipore) using standard procedures. Membranes were blocked in 5% BSA (Sigma) in Tris-buffered saline with Tween-20 (TBST/Biorad, Hercules, CA) for 2 hr, incubated overnight with primary antibody (see antibody section) at 4°C, followed by corresponding HRP-linked secondary antibody incubation (Cell Signaling Technology, Danvers, MA). […]

[2] = molecular target: monoamine oxidase (MAO); experiment: Monoamine oxidase (MAO-Glo) activity assay; assay type: biochemical; details: four parameter fit; for IC50: 60-min reaction, read-out: MAO Dose Response IC50
Experimental: The Monoamine oxidase (MAO) activity measurements were performed using a MAO-Glo assay kit (Promega, Madison, WI), in a 384-well plate (Proxiplate 384 Plus, Perkin Elmer, Waltham, MA) with the miniaturization of final assay volume to 20 µL, as per the manufacturer’s instructions. In brief, MAO reactions were terminated after a 60-min enzymatic reaction, by the addition of reconstituted Luciferin Detection Reagent. Following a 20-min incubation with the detection reagent, the luminescence was measured using a multi-label plate reader (Envision, Perkin Elmer). IC50 values were estimated by fitting percentage inhibition vs. compound concentration in a variable slope (four parameter) fit.

[3] = molecular target: T1, recombinant human tau Tau-441(WT) (Homo sapiens, UniProt P10636); experiment: Bio-layer interferometry (BLI) biosensor assay, tau WT; assay type: binding; details: BLI steady-state analysis, immobilized biotinylated tau; Figure 1—figure supplement 1B
T1 construct: biotin (chemical label, NHS-PEG4); purchased SignalChem T08-54BN; host or cells: E. coli
T1 sequence (P10636 1-441 isoform P10636-8): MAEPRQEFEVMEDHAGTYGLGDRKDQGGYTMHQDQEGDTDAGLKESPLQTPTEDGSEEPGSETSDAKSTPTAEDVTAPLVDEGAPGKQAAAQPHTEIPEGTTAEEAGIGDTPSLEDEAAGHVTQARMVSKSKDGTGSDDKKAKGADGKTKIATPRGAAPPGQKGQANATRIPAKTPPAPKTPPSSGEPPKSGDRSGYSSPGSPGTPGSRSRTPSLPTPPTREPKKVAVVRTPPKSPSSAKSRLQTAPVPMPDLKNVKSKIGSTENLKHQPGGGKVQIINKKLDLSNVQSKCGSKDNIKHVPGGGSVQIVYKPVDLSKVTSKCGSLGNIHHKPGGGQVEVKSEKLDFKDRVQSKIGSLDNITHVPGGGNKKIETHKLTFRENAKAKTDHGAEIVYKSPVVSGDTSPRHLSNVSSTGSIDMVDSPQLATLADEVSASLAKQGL
Experimental: (§4) BLI was performed in the Octet Red384 instrument (ForteBio, Fremont CA, USA) with 1X PBS and 0.01% Brij-35 as the assay buffer. […] The biotinylated protein samples for BLI were purified in 1X phosphate buffered saline (PBS). Streptavidin (SA) sensors were used to measure the biophysical interaction between the small molecules and biotinylated tau. Prior to the initiation of BLI, the SA sensors were soaked by dipping in 200 μL of assay buffer in a 96-well Greiner Bio-One Black flat bottom plate (Greiner, Monroe NC, USA Cat.655209). The assay was performed in 80 μL volume in Greiner Bio-One 384-well black flat bottom PP plates (Greiner, Cat.781209) with an initial baseline step, followed by loading of 250 nM biotinylated tau protein. The small molecules samples and recombinant proteins were arranged in the 384-well plate according to a plate map recommended for the eight-channel mode kinetic analysis, where the sensors move from low to high concentration of small molecule samples. Subsequent steps included a second baseline (120 s), followed by association (240 s) and dissociation (240 s) cycles. […] When Req option is selected, Fortebio’s software calculates affinity constants based on the Req values determined from the curve fits. […]

[4] = molecular target: T2, recombinant human tau Tau-441(A152T) (Homo sapiens, UniProt P10636, A469T); experiment: Bio-layer interferometry (BLI) biosensor assay, tau A152T; assay type: binding; details: BLI steady-state analysis, immobilized biotinylated tau; Figure 1—figure supplement 1B; read-out: KD, Tau A152T
T2 construct: biotin (chemical label, NHS-PEG4); purchased SignalChem T08-56VN; host or cells: E. coli
T2 sequence (P10636 1-441 isoform P10636-8 A152T): as the sequence (P10636 1-441 isoform P10636-8) above, with A152T counted along it
Experimental: BLI was performed in the Octet Red384 instrument (ForteBio, Fremont CA, USA) with 1X PBS and 0.01% Brij-35 as the assay buffer. […] The biotinylated protein samples for BLI were purified in 1X phosphate buffered saline (PBS). Streptavidin (SA) sensors were used to measure the biophysical interaction between the small molecules and biotinylated tau. Prior to the initiation of BLI, the SA sensors were soaked by dipping in 200 μL of assay buffer in a 96-well Greiner Bio-One Black flat bottom plate (Greiner, Monroe NC, USA Cat.655209). The assay was performed in 80 μL volume in Greiner Bio-One 384-well black flat bottom PP plates (Greiner, Cat.781209) with an initial baseline step, followed by loading of 250 nM biotinylated tau protein. The small molecules samples and recombinant proteins were arranged in the 384-well plate according to a plate map recommended for the eight-channel mode kinetic analysis, where the sensors move from low to high concentration of small molecule samples. Subsequent steps included a second baseline (120 s), followed by association (240 s) and dissociation (240 s) cycles. […] Data analysis was performed using Data Acquisition HT 11.0 software following reference subtraction (an average of two sensors with DMSO) using a 1:1 binding model and an individual fit of each replicate. The equilibrium dissociation constant (KD) was estimated using data at equilibrium from each available small molecule concentration with steady-state analysis. The instrument manufacturer (Fortebio, article #137) recommends the steady state option for analyzing interactions that are either low affinity or very fast on-and-off affinity rates. […] When Req option is selected, Fortebio’s software calculates affinity constants based on the Req values determined from the curve fits. In the steady-state analysis, Req is plotted against the small molecule concentration to infer the Rmax. […] As per the instrument manufacturer’s instructions, if all curves have reached equilibrium, these two sets of values correspond to ‘Response,’ and Req values should match. […]

[5] = molecular target: T3, recombinant human tau Tau-441(P301L) (Homo sapiens, UniProt P10636, P618L); experiment: Bio-layer interferometry (BLI) biosensor assay, tau P301L; assay type: binding; details: BLI steady-state analysis, immobilized biotinylated tau; Figure 1—figure supplement 1B
T3 construct: biotin (chemical label, NHS-PEG4); purchased SignalChem T08-56FN; host or cells: E. coli
T3 sequence (P10636 1-441 isoform P10636-8 P301L): as the sequence (P10636 1-441 isoform P10636-8) above, with P301L counted along it
Experimental: as §4

[6] = tested on: P-tau S396 in A152T neurons; experiment: Western blot of P-tau S396 in A152T neurons; assay type: cell-based, human; details: 24 hr, across biological replicates
Description: as §1, §2, §3

CC(C)C[C@H](NC(=O)[C@H](CCc1ccccc1)NC(=O)CN1CCOCC1)C(=O)N[C@@H](Cc1ccccc1)C(=O)N[C@@H](CC(C)C)C(=O)[C@@]1(C)CO1 [carfilzomib, Carfilzomib, reference compound] was tested. Which “effect of 6 hr pre-treatment on QC-01–175-mediated tau degradation (total tau and P-tau S396)” value (“effect … (total tau and P-tau S396)” below) [1] did it give?
Its value is “caused a concentration-dependent rescue of the effect of QC-01–175”.

Which IC50 [2] does the source give for N[C@@H]1C[C@H]1c1ccccc1 (racemic) [Parnate, Tranylcypromine] here?
The IC50 was 0.057 µM.

What about the “MAO Dose Response Hill Slope” value [2] of the same compound?
Its value is 1.504.

And the “MAO Dose Response Log IC50” value [2]?
The value was -1.240.

NS(=O)(=O)OC[C@@H]1C[C@@H](n2ccc3c(N[C@H]4CCc5ccccc54)ncnc32)C[C@@H]1O [MLN4924, reference compound] was tested. Which “effect … (total tau and P-tau S396)” value [1] did it give?
Its value is “caused a concentration-dependent rescue of the effect of QC-01–175”.

For Nc1cccc2c1C(=O)N(C1CCC(=O)NC1=O)C2=O (centres unmarked) [Pomalidomide], which IC50 [2] is on record?
The IC50 was > 50 µM.

What about the “MAO Dose Response Hill Slope” value [2] of the same compound?
Its value is 0.108.

Which results are given for COc1cc(OCc2ccccn2)ccc1/C=C/c1cc(/C=C/c2ccc3cc[nH]c3c2)n[nH]1 [PE859, reference compound]?
Kd [3]: 22 ± 2.78 µM; Kd [4]: 22.1 ± 3.26 µM; Kd [5]: 8.8 ± 1.11 µM

Which results are given for Nc1cccc2c1CN(C1CCC(=O)NC1=O)C2=O (centres unmarked) [lenalidomide, Lenalidomide, reference compound]?
effect of 6 hr pre-treatment on QC-01–175-mediated tau degradation (total tau and P-tau S396) [1]: reversed QC-01–175-mediated tau degradation in a concentration-dependent manner; up-regulation of P-tau S396 ([6]; 1 μM): ~ 30%; up-regulation of P-tau S396 ([6]; 10 μM): ~90%

CO/C1=C\C(C)=C\[C@@H](C)[C@@H](O)[C@@H](C)C/C(C)=C/C=C/[C@H](OC)[C@@H]([C@@H](C)[C@@H](O)[C@H](C)[C@@]2(O)C[C@@H](O)[C@H](C)[C@@H](C(C)C)O2)OC1=O [bafilomycin A1, Bafilomycin A1, reference compound] was tested. Which “effect … (total tau and P-tau S396)” value [1] did it give?
The value was “did not reverse the degrader effect and further promoted tau clearance”.
